The values below come from patent US20140314747A1, “PREDICTING RESPONSE TO EGFR INHIBITORS” (Genentech, Inc., priority 2013, published 2014).

Holding throughout (type): cell-based, mouse
Experiment [1] concerns mesenchyme free lung explants (lung epithelium in Matrigel). Kind of experiment: mesenchyme-free lung explant culture, growth and branching. On the procedure: (§1) Pancreas and individual lobes of the lungs were dissected from embryos harvested from timed pregnancy setups. Embryonic explants were cultured on 12 mm Transwell® with 0.4 μm polyester membrane insert (Corning, Tewsbury, Mass.) at the air-liquid interface in DME media with 10% fetal calf serum, glutamine and penicillin-streptomycin. For longer-term cultures (>3 days), media was changed daily.
For mesenchyme-free cultures, lungs were dissected and incubated in Collagenase/Dispase (1 mg/ml for each) for 10-15 minutes at room temperature. Epithelial tissue was removed by mechanical dissection, transferred to the Transwell® plates, and covered with 5-10 μl of 1:1 Matrigel:DME. After Matrigel was solidified, 400 μl media (DME/10% FCS/glutamine/pen-strep+200 ng/ml FGF7 (Life Technologies, Carlsbad, Calif.), FGF1 (Life Technologies), or EGF (Life Technologies)) was added to top and bottom wells. Erlotinib (Tarceva®, 1 μM hydrochloride salt; OSI Pharmaceuticals) or DMSO was added as indicated.
(§2) Embryonic explants were fixed in 4% paraformaldehyde, permeabilized in PBS with 2% BSA, 0.1% saponin or 0.1% Triton-X100. After washing, tissues were stained with anti-E-cadherin (Santa Cruz). Explants were mounted and imaged with a Leica SP5 laser confocal microscope. Images shown are representative of multiple independent experiments (n≧5) with littermate explants that were cultured, stained and imaged under substantially the same conditions and settings.
(§3) Homozygous germline mutations in LKB1 in mice are early embryonic lethal. […] This allele (Lkb1^MG) was “knocked-in” to the endogenous LKB1 locus to generate a genetically engineered mouse line that has been described in detail elsewhere (Lo et al., 2012, J. Cell. Biol., 199: 1117-1130). Lung and pancreas tissues from Lkb1^MG/MG embryos and wild-type littermates were dissected and grown in vitro for several days. Lung cultures were grown both as whole mount explants, and “mesenchyme-free” where most of the mesenchyme and other tissue types were stripped from the lung epithelium and the epithelium was cultured in Matrigel (Lu et al., 2005, J. Biol. Chem., 280: 4834-4841). During this time, the response of these tissues to growth factors was assessed.

For experiment [2], the system named is whole mount lung explants. Kind of experiment: whole mount lung explant culture, growth. Particulars: for size of terminal buds: addition of EGF. Here is the method: as §1, §2, §3
The next experiment has as its system pancreatic explants. Kind of experiment: pancreatic explant culture, cyst formation. Here is the method: as §1, §2, §3

With `C#Cc1cccc(Nc2ncnc3cc(OCCOC)c(OCCOC)cc23)c1` [erlotinib], the “effect on EGF-induced growth” value is “inhibited” in experiment [1] (mesenchyme free cultures, erlotinib 1 μM, EGF + NMPP1) and “inhibited” in experiment [2] (whole mount cultures, erlotinib 1 μM, EGF + NMPP1). In the experiment with pancreatic explants (erlotinib 1 μM, Lkb1 inhibition (NMPP1) with EGF), the “effect on development of the cystic phenotype” value is on record as “inhibits the development of the cystic phenotype”.

For “FGF-1: fibroblast growth factor (FGF)-1 (Life Technologies)”, the “growth of mesenchyme free lung cultures” value in experiment [1] (both LKB1 wt/wt and LKB1 MG/MG, presence and absence of NMPP1) is reported as “robust growth”.

Take “EGF: epidermal growth factor (Life Technologies) added to explant media (NSDSECPLSHDGYCLHDGVCMYIEALDKYACNCVVGYIGERCQYRDLKWWELR; UniProt P01133 971-1023, looked up)”: the growth result in experiment [1] (Lkb1 MG/MG explants, EGF 100 ng/ml in the presence of NMPP1) is given as “substantial growth”. In experiment [1] (Lkb1 wt/wt explants, EGF 100 ng/ml in the presence of NMPP1), the “growth compared to no growth factor” value is “modest increase in growth”. The “size of terminal buds” value is “only a modest increase in size” in experiment [2] (LKB1 wt/wt lungs) and “substantial enlargement of the terminal buds” in experiment [2] (Lkb1 MG/MG lungs). The “development of the cystic phenotype” value in the experiment on pancreatic explants (EGF 100 ng/ml, with Lkb1 inhibition) is recorded as “accelerates the development of the cystic phenotype”. For the same compound, the cyst formation result in the experiment on pancreatic explants (EGF, in the absence of Lkb1 inhibition) is given as “does not by itself promote cysts”.
